These results are taken from the supplement of paper PMC11208160.
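Also: IS621 bridge recombinase in Escherichia coli cells against a fixed T5 target plasmid.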

This data set is described as follows: recombinant UMI read abundance after kanamycin selection (control-corrected) (log10(CPM+1)); higher = more efficient recombination; extreme values may be limits of the assay; sequences stand for … in AGTGCAGAGAAAATCGGCCAGTTTTCTCTGCCTGCAGTCCGCATGCCGTGGGACCCCTTGGGTTCTAACCTGTTGCCTAGATTTATGCAGCGGACTGCCTTTCTCCCAAAGTGATAAACCGG…AGGTTGGTTTCACT; site = the 11-nt donor. In a few lines:
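Values are reported as log10(CPM+1), obtained by converting sequencing counts to CPM, averaging replicates and scaling by control-derived factors. The counts came from recombinant UMIs amplified by PCR across the donor–target junction. These UMIs came from a pooled Escherichia coli screen of donor and donor-binding-loop pairs for the IS621 bridge recombinase, plated with IPTG (0.07 mM) plus kanamycin or left unselected, in two replicates each.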
“CCAAGGTCATGGACCGGTTTTCCCGGTAATCCGTATTTGTT (site CCAAGGTCTAA)”: the “recombinant UMI read abundance (log10)” value is 2.12.
On to “CCAAGTGCATGGACCGGTTTTCCCGGTAATCCGTATTTGAT (site CCAAGTGCTAT)”, for which the “recombinant UMI read abundance (log10)” value worked out at 1.57.
Then “CCAAGTGCATGGACCGGTTTTCCCGGTAATCCGTATTTGAT (site CCACGTGCTAT)”, with 0.00443.
The result for “CCAAGTGCATGGACCGGTTTTCCCGGTAATCCGTATTTGAT (site CCAGGTGCTAT)” reads 0.02; that for “CCAAGTGCATGGACCGGTTTTCCCGGTAATCCGTATTTGAT (site CCATGTGCTAT)”, 0.
As for “CCAATATCATGGACCGGTTTTCCCGGTAATCCGTATTTGTC (site CCAATATCTGA)”, the “recombinant UMI read abundance (log10)” value was determined as 1.16.
Then “CCAATATCATGGACCGGTTTTCCCGGTAATCCGTATTTGTC (site CCCATATCTGA)”, with 0.0129; and “CCAATATCATGGACCGGTTTTCCCGGTAATCCGTATTTGTC (site CCGATATCTGA)”, with 0; and “CCAATATCATGGACCGGTTTTCCCGGTAATCCGTATTTGTC (site CCTATATCTGA)”, with 1.27.
The result for “CCACACACATGGACCGGTTTTCCCGGTAATCCGTATTTGTA (site CCACACACTTA)” reads 1.15.
On to “CCACACACATGGACCGGTTTTCCCGGTAATCCGTATTTGTA (site CCCCACACTTA)”, for which the “recombinant UMI read abundance (log10)” value was determined as 0.0104.
Then “CCACACACATGGACCGGTTTTCCCGGTAATCCGTATTTGTA (site CCGCACACTTA)”, with 0.0104; and “CCACACACATGGACCGGTTTTCCCGGTAATCCGTATTTGTA (site CCTCACACTTA)”, with 0.0109; and “CCACATTCATGGACCGGTTTTCCCGGTAATCCGTATTTGAT (site CCACATTCTAT)”, with 0.
Turning to “CCACCACCATGGACCGGTTTTCCCGGTAATCCGTATTTGTA (site CCACCACCTTA)”, the “recombinant UMI read abundance (log10)” value is 0.00663.
Take “CCACGAACATGGACCGGTTTTCCCGGTAATCCGTATTTGCA (site CCACGAACTTG)”: the “recombinant UMI read abundance (log10)” value amounted to 0.
The result for “CCACGCGCATGGACCGGTTTTCCCGGTAATCCGTATTTGAG (site CCACGCGCTCT)” reads 0.759; that for “CCAGAATCATGGACCGGTTTTCCCGGTAATCCGTATTTGTG (site CCAGAATCTCA)”, 2.13.
The result for “CCAGCAGCATGGACCGGTTTTCCCGGTAATCCGTATTTGCT (site CAAGCAGCTAG)” reads 0; that for “CCAGCAGCATGGACCGGTTTTCCCGGTAATCCGTATTTGCT (site CCAGCAGCTAG)”, 0.104; that for “CCAGCAGCATGGACCGGTTTTCCCGGTAATCCGTATTTGCT (site CGAGCAGCTAG)”, 0.
Then “CCAGCAGCATGGACCGGTTTTCCCGGTAATCCGTATTTGCT (site CTAGCAGCTAG)”, with 0.0142.
On to “CCAGCATCATGGACCGGTTTTCCCGGTAATCCGTATTTGAC (site CCAGCATCTGT)”, for which the “recombinant UMI read abundance (log10)” value turned out to be 0.
For “CCAGCATCATGGACCGGTTTTCCCGGTAATCCGTATTTGAC (site CTAGTATCTGT)”, the “recombinant UMI read abundance (log10)” value turned out to be 0.
“CCAGGAGCATGGACCGGTTTTCCCGGTAATCCGTATTTGAT (site CCAGGAGCTAT)”: the “recombinant UMI read abundance (log10)” value came out at 1.6.
Take “CCAGGAGCATGGACCGGTTTTCCCGGTAATCCGTATTTGAT (site CCAGGCGCTAT)”: the “recombinant UMI read abundance (log10)” value was found to be 0.854.
Regarding “CCAGGAGCATGGACCGGTTTTCCCGGTAATCCGTATTTGAT (site CCAGGGGCTAT)”, the “recombinant UMI read abundance (log10)” value was 0.941.
Turning to “CCAGGAGCATGGACCGGTTTTCCCGGTAATCCGTATTTGAT (site CCAGGTGCTAT)”, the “recombinant UMI read abundance (log10)” value amounted to 1.78.
The result for “CCAGGTACATGGACCGGTTTTCCCGGTAATCCGTATTTGAT (site CCAGGTACTAT)” reads 0.643; that for “CCAGGTACATGGACCGGTTTTCCCGGTAATCCGTATTTGAT (site CCAGGTCCTAT)”, 0; that for “CCAGGTACATGGACCGGTTTTCCCGGTAATCCGTATTTGAT (site CCAGGTGCTAT)”, 1.2.
Consider “CCAGGTACATGGACCGGTTTTCCCGGTAATCCGTATTTGAT (site CCAGGTTCTAT)”, for which the “recombinant UMI read abundance (log10)” value was 0.478.
The result for “CCAGGTGCATGGACCGGTTTTCCCGGTAATCCGTATTTGCT (site CCAGGTGCTAA)” reads 0.208; that for “CCAGGTGCATGGACCGGTTTTCCCGGTAATCCGTATTTGCT (site CCAGGTGCTAC)”, 0.00458; that for “CCAGGTGCATGGACCGGTTTTCCCGGTAATCCGTATTTGCT (site CCAGGTGCTAG)”, 1.46.
Turning to “CCAGGTGCATGGACCGGTTTTCCCGGTAATCCGTATTTGCT (site CCAGGTGCTAT)”, the “recombinant UMI read abundance (log10)” value amounted to 0.402.
Consider “CCAGGTGCATGGACCGGTTTTCCCGGTAATCCGTATTTGTT (site CCAGGTGCTAA)”, for which the “recombinant UMI read abundance (log10)” value was determined as 0.856.
The result for “CCAGGTGCATGGACCGGTTTTCCCGGTAATCCGTATTTGTT (site CCAGGTGCTAC)” reads 0.00844; that for “CCAGGTGCATGGACCGGTTTTCCCGGTAATCCGTATTTGTT (site CCAGGTGCTAG)”, 1.42.
The result for “CCAGGTGCATGGACCGGTTTTCCCGGTAATCCGTATTTGTT (site CCAGGTGCTAT)” reads 1.14; that for “CCAGTATCATGGACCGGTTTTCCCGGTAATCCGTATTTGAC (site CAAGTATCTGT)”, 0.983.
The result for “CCAGTATCATGGACCGGTTTTCCCGGTAATCCGTATTTGAC (site CCAGTATCTGT)” reads 0.685.
As for “CCAGTATCATGGACCGGTTTTCCCGGTAATCCGTATTTGAC (site CGAGTATCTGT)”, the “recombinant UMI read abundance (log10)” value is 0.
The result for “CCAGTATCATGGACCGGTTTTCCCGGTAATCCGTATTTGAC (site CTAGTATCTGT)” reads 0.871; that for “CCATACACATGGACCGGTTTTCCCGGTAATCCGTATTTGTT (site CCATACACTAA)”, 0.866.
Take “CCATATTCATGGACCGGTTTTCCCGGTAATCCGTATTTGAC (site GGGATCGCTAC)”: the “recombinant UMI read abundance (log10)” value was 0.00628.
With “CCATCAGCATGGACCGGTTTTCCCGGTAATCCGTATTTGCT (site CCATCAGCTAG)”, the “recombinant UMI read abundance (log10)” value amounted to 0.375.
On to “CCATCAGCATGGACCGGTTTTCCCGGTAATCCGTATTTGCT (site CGATCATCTAG)”, for which the “recombinant UMI read abundance (log10)” value amounted to 0.145.
Then “CCATCATCATGGACCGGTTTTCCCGGTAATCCGTATTTGCA (site CCATCATCTTG)”, with 0; and “CCATCATCATGGACCGGTTTTCCCGGTAATCCGTATTTGCA (site CGATCATCTAG)”, with 0.
As for “CCATCCCCATGGACCGGTTTTCCCGGTAATCCGTATTTGAT (site CCATCCCCTAT)”, the “recombinant UMI read abundance (log10)” value was determined as 0.0114.
On to “CCATTATCATGGACCGGTTTTCCCGGTAATCCGTATTTGAC (site CCATTATCTGT)”, for which the “recombinant UMI read abundance (log10)” value was found to be 0.804.
